According to patent US8288367B2, “Substituted estratriene derivatives as 17BETA HSD inhibitors” (Solvay Pharmaceuticals GmBH, priority 2006, dated 2012):

What was measured:
17β-HSD3 enzyme = molecular target: T1, 17β-HSD3 enzyme (Homo sapiens, UniProt P37058); assay: Inhibition of 17β-HSD type 3 enzyme in MCF-7 cells stably expressing 17β-HSD3 (HPLC); assay type: cell-based; conditions: MCF7, MCF-7 cells expressing 17β-HSD3, 2 nM androstenedione; for inhibition at 1 µM: 1 μM compound; for inhibition at 10 µM: 10 μM compound
T1 construct: expressed in transfected cells; host or cells: MCF-7 cell lines stably expressing 17β-HSD3
T1 sequence (P37058 1-310): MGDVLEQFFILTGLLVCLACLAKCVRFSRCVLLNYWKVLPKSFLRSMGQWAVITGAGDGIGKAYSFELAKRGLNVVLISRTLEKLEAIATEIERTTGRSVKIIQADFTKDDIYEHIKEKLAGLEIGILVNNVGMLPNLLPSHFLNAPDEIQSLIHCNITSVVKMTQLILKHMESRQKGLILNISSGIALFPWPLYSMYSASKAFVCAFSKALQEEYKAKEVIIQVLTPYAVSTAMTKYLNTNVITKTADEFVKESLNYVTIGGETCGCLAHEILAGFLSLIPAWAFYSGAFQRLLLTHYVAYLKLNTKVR
Protocol: The compounds were screened in respect of 17β-HSD3 enzyme activity in vitro on established MCF-7 cell lines, each stably expressing the 17β-HSD3 enzyme. The interconversion of substrate by 17β-HSD3 and the 17β-HSD3 inhibiting activity of chemical compounds in these cell lines were detected by HPLC system.
Varying amounts of the test compounds were incubated in the growth medium of the 17β-HSD3 expressing cells together tritium labeled androstenedione (2 nM). The medium samples were removed after exact incubation time and the reaction is stopped by trichloroacetic acid (TCA). The samples were analyzed by HPLC-coupled flow scintillation analysis.
Conversion: The 17β-HSD3 inhibiting activity of an individual test compound was calculated by comparing the conversion of a control sample without any test compound (referred to as “Negative Control”) to the (reduced) conversion of the test sample containing the particular compound to be tested (referred to as “Test Sample”).

[1] = molecular target: T2, recombinant human 17β-HSD1 (Homo sapiens, UniProt P14061); assay: Recombinant 17β-HSD1 assay (HPLC, 3H-estrone conversion); assay type: biochemical; conditions: 30 nM estrone, 1 mM NADPH, 30 min RT, read-out: Inhibition of rec. 17β-HSD1; for inhibition at 0.1 µM: 100 nM compound; for inhibition at 1 µM: 0.5 h, 1 μm compound
T2 construct: made in house; host or cells: Sf9 insect cells (baculovirus, Bac to Bac Expression System)
T2 sequence (P14061 1-328): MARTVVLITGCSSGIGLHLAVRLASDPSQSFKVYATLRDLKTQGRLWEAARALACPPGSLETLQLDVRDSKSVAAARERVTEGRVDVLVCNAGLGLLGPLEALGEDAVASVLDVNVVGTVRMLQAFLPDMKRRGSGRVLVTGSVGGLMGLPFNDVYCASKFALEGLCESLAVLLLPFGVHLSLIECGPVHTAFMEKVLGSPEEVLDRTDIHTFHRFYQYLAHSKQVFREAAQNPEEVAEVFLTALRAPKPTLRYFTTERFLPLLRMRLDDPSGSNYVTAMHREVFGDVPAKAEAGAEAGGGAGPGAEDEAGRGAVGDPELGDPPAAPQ
Protocol: 17β-HSD1 or 17β-HSD2 purification: Recombinant 17β-HSD1 and 17β-HSD2 baculoviruses were generated by the “Bac to Bac Expression System” (Invitrogen). Recombinant 17β-HSD1 or 17β-HSD2 bacmids were transfected to Sf9 insect cells using “Cellfectin Reagent” (Invitrogen). 60 h later cells were harvested; the fractions including 17β-HSD1 or 17β-HSD2 were isolated as described by Puranen et al. (1994). Aliquots were stored frozen until determination of enzymatic activity.
Recombinant 17β-HSD1 assay: Recombinant protein homogenate (0.1 μg/ml) was incubated in 20 mM KH2PO4 pH 7.4 reaction buffer, including protease inhibitors (Complete Protease Inhibitor Cocktail tablet, Roche Diagnostics, 1697498), with 30 nM estrone (Sigma, E9750) as substrate, 800 000 cpm/ml ^3H-estrone (PerkinElmer, NET319001MC) as a tracer substrate, and 1 mM NADPH (Sigma, N1630) as a co-factor for 30 min at RT, in the presence of potential inhibitors at concentrations of 1 μM or 0.1 μM. Inhibitor stock solutions were prepared in DMSO. The enzyme reaction was stopped by addition of trichloroacetic acid (1% final concentration). Samples were centrifuged in a microtiter plate at 4000 rpm for 10 min. Supernatants were applied to reverse phase HPLC on a Waters Symmetry C18 column, equipped with a Waters Sentry Guard column. Isocratic HPLC runs were performed at RT at a flow rate of 1 ml/min of acetonitrile:water 48:52 as running solvent. Radioactivity was monitored in the eluate by a Packard Flow Scintillation Analyzer. Total radioactivity for estrone and estradiol were determined in each sample and percent inhibition of estradiol conversion by the respective inhibitor was calculated
For the calculation of % inhibition the following formula was used:
[formula] Percent inhibition was calculated as follows: % inhibition=100−% conversion

[2] = molecular target: T3, recombinant human 17β-HSD2 (Homo sapiens, UniProt P37059); assay: Recombinant 17β-HSD2 assay (HPLC, 3H-estradiol conversion); assay type: biochemical; conditions: 50 nM estradiol, 1 mM β-NAD, read-out: Inhibition of rec. 17β-HSD2; for inhibition at 0.1 µM: 100 nM compound; for inhibition at 1 µM: 1 μm compound
T3 construct: made in house; host or cells: Sf9 insect cells (baculovirus, Bac to Bac Expression System)
T3 sequence (P37059 1-387): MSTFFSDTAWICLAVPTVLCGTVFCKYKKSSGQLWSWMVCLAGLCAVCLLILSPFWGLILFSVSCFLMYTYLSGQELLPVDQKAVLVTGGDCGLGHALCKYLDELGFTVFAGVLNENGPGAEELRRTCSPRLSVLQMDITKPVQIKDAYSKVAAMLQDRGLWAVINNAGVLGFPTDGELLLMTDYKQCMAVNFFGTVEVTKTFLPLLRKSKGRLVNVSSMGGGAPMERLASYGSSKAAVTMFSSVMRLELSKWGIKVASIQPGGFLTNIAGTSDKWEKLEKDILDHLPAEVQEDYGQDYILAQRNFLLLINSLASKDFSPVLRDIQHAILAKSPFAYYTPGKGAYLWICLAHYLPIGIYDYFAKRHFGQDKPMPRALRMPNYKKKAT
Protocol: 17β-HSD1 or 17β-HSD2 purification: Recombinant 17β-HSD1 and 17β-HSD2 baculoviruses were generated by the “Bac to Bac Expression System” (Invitrogen). Recombinant 17β-HSD1 or 17β-HSD2 bacmids were transfected to Sf9 insect cells using “Cellfectin Reagent” (Invitrogen). 60 h later cells were harvested; the fractions including 17β-HSD1 or 17β-HSD2 were isolated as described by Puranen et al. (1994). Aliquots were stored frozen until determination of enzymatic activity. Recombinant 17β-HSD2 assay: Recombinant 17β-HSD2 assay was performed as described for 17β-HSD1 but with following modifications: 6 μg/ml of recombinant protein homogenate, 50 nM Estradiol (Sigma, E8875) as a substrate, 800 000 cpm/ml ^3H-estradiol (PerkinElmer, NET317) as a tracer substrate and 1 mM β-NAD (Sigma N7004) as a co-factor were used. Total radioactivity for estrone and estradiol were determined in each sample and percent inhibition of estrone conversion by the respective inhibitor was calculated. For the calculation of % inhibition the following formula was used: [formula] Percent inhibition was calculated as follows: % inhibition=100−% conversion

For `Cc1cnc(NC(=O)CC[C@@H]2CC(F)(F)[C@@]3(C)CC[C@@H]4c5ccc(C(N)=O)cc5CC[C@H]4[C@H]23)s1` [Compound 8, 17,17-difluoro-15beta-{3-[(5-methyl-1,3-thiazol-2-yl)amino]-3-oxopropyl}estra-1(10),2,4-triene-3-carboxamide], the inhibition at 1 µM (17β-HSD3 enzyme) was 4% and the inhibition at 10 µM (17β-HSD3 enzyme) was 46%.

For `C[C@]12CC[C@@H]3c4ccc(B(O)O)cc4CC[C@H]3[C@@H]1[C@@H](CCCC(=O)Nc1ccc3c(c1)OCO3)CC2=O` [Compound 13, [15alpha-[4-(1,3-benzodioxol-5-ylamino)-4-oxobutyl]-17-oxoestra-1(10),2,4-trien-3-yl]boronic acid], the inhibition at 1 µM (17β-HSD3 enzyme) was 18%, the inhibition at 10 µM (17β-HSD3 enzyme) was 22% and the inhibition at 0.1 µM [1] was 27%. For the same compound, the inhibition at 1 µM [1] was 52%, the inhibition at 0.1 µM [2] was -7.6% and the inhibition at 1 µM [2] was 2%.

In the case of `C[C@]12CC[C@@H]3c4ccc(B(O)O)cc4CC[C@H]3[C@@H]1[C@@H](CCCC(=O)NC1CCCCC1)CC2=O` [Compound 17, [15alpha-[4-(cyclohexylamino)-4-oxobutyl]-17-oxoestra-1(10),2,4-trien-3-yl]boronic acid], the inhibition at 1 µM (17β-HSD3 enzyme) is reported as 6%, the inhibition at 10 µM (17β-HSD3 enzyme) is reported as 45% and the inhibition at 0.1 µM [1] is reported as 24%. For the same compound, the inhibition at 1 µM [1] was 31%, the inhibition at 0.1 µM [2] was -5.4% and the inhibition at 1 µM [2] was 1.8%.

`C[C@]12CC[C@@H]3c4ccc(B(O)O)cc4CC[C@H]3[C@@H]1[C@@H](CCCC(=O)N1CCCCC1)CC2=O` [Compound 20, [17-oxo-15alpha-(4-oxo-4-piperidin-1-ylbutyl)estra-1(10),2,4-trien-3-yl]boronic acid] gave an inhibition at 1 µM (17β-HSD3 enzyme) of 15% and an inhibition at 10 µM (17β-HSD3 enzyme) of 57%.

In the case of `C[C@]12CC[C@@H]3c4ccc(B(O)O)cc4CC[C@H]3[C@@H]1[C@@H](CCCC(=O)NC1CCCCC1)CC2(F)F` [Compound 48, [15alpha-[4-(cyclohexylamino)-4-oxobutyl]-17,17-difluoroestra-1(10),2,4-trien-3-yl]boronic acid], the inhibition at 1 µM (17β-HSD3 enzyme) is reported as 13%, the inhibition at 10 µM (17β-HSD3 enzyme) is reported as 63% and the inhibition at 0.1 µM [1] is reported as 25%. The inhibition at 1 µM [1] was 50%, the inhibition at 0.1 µM [2] was 6.4% and the inhibition at 1 µM [2] was 12.8%.

`CCN(CC)C(=O)CCC[C@H]1CC(F)(F)[C@@]2(C)CC[C@@H]3c4ccc(B(O)O)cc4CC[C@H]3[C@H]12` [Compound 49, [15alpha-[4-(diethylamino)-4-oxobutyl]-17,17-difluoroestra-1(10),2,4-trien-3-yl]boronic acid] showed an inhibition at 1 µM (17β-HSD3 enzyme) of 62%, an inhibition at 10 µM (17β-HSD3 enzyme) of 89% and an inhibition at 0.1 µM [1] of 29%. For the same compound, the inhibition at 1 µM [1] was 50%, the inhibition at 0.1 µM [2] was 7.7% and the inhibition at 1 µM [2] was 11.6%.

`C[C@]12CC[C@@H]3c4ccc(B(O)O)cc4CC[C@H]3[C@@H]1[C@@H](CCCC(=O)NCc1cccnc1)CC2(F)F` [Compound 53, [17,17-difluoro-15alpha-{4-oxo-4-[(pyridin-3-ylmethyl)amino]butyl}estra-1(10),2,4-trien-3-yl]boronic acid] gave an inhibition at 1 µM (17β-HSD3 enzyme) of 4%, an inhibition at 10 µM (17β-HSD3 enzyme) of 50% and an inhibition at 0.1 µM [1] of 19%. The inhibition at 1 µM [1] was 50%, the inhibition at 0.1 µM [2] was 5% and the inhibition at 1 µM [2] was 8.6%.

In the case of `C[C@]12CC[C@@H]3c4ccc(B(O)O)cc4CC[C@H]3[C@@H]1[C@@H](CCCC(=O)N1CCCCC1)CC2(F)F` [Compound 57, [17,17-difluoro-15alpha-(4-oxo-4-piperidin-1-ylbutyl)estra-1(10),2,4-trien-3-yl]boronic acid], the inhibition at 1 µM (17β-HSD3 enzyme) is reported as 28% and the inhibition at 10 µM (17β-HSD3 enzyme) is reported as 78%.

Work on `C[C@]12CC[C@@H]3c4ccc(B(O)O)cc4CC[C@H]3[C@@H]1[C@H](CCC(=O)NCc1ccc3c(c1)OCO3)CC2(F)F` [Compound 60, [15beta-{3-[(1,3-benzodioxol-5-ylmethyl)amino]-3-oxopropyl}-17,17-difluoroestra-1(10),2,4-trien-3-yl]boronic acid] yielded an inhibition at 1 µM (17β-HSD3 enzyme) of 28%, an inhibition at 10 µM (17β-HSD3 enzyme) of 67% and an inhibition at 0.1 µM [1] of 46%. The inhibition at 1 µM [1] was 71%, the inhibition at 0.1 µM [2] was 9.5% and the inhibition at 1 µM [2] was 12.5%.

Work on `C[C@]12CC[C@@H]3c4ccc(B(O)O)cc4CC[C@H]3[C@@H]1[C@H](CCC(=O)NCc1ccccc1)CC2(F)F` [Compound 63, [15beta-[3-(benzylamino)-3-oxopropyl]-17,17-difluoroestra-1(10),2,4-trien-3-yl]boronic acid] yielded an inhibition at 1 µM (17β-HSD3 enzyme) of 41%, an inhibition at 10 µM (17β-HSD3 enzyme) of 88% and an inhibition at 0.1 µM [1] of 51%. The inhibition at 1 µM [1] was 66%, the inhibition at 0.1 µM [2] was 12.8% and the inhibition at 1 µM [2] was 16.9%.

Compound `Cc1cccc2c(CCNC(=O)CC[C@@H]3CC(F)(F)[C@@]4(C)CC[C@@H]5c6ccc(B(O)O)cc6CC[C@H]5[C@H]34)c[nH]c12` [Compound 67, [17,17-difluoro-15beta-(3-{[2-(7-methyl-1H-indol-3-yl)ethyl]amino}-3-oxopropyl)estra-1(10),2,4-trien-3-yl]boronic acid] has an inhibition at 1 µM (17β-HSD3 enzyme) of 40%, an inhibition at 10 µM (17β-HSD3 enzyme) of 84% and an inhibition at 0.1 µM [1] of 47%. It also gave an inhibition at 1 µM [1] of 66%, an inhibition at 0.1 µM [2] of 10% and an inhibition at 1 µM [2] of 15.8%.

For `C[C@]12CC[C@@H]3c4ccc(NCc5ccccc5)cc4CC[C@H]3[C@@H]1[C@@H](CCCC(=O)N1CCOCC1)CC2=O` [Compound 98, 3-(benzylamino)-15alpha-(4-morpholin-4-yl-4-oxobutyl)estra-1(10),2,4-trien-17-one], the inhibition at 1 µM (17β-HSD3 enzyme) was 15% and the inhibition at 10 µM (17β-HSD3 enzyme) was 48%.
